Ki data for 24 compounds are collected here from ChEMBL document CHEMBL3638482, “2,3-disubstituted pyrazinesulfonamides as CRTH2 inhibitors” (2014).

The assay deals with T1, Prostaglandin D2 receptor 2 (Homo sapiens, UniProt Q9Y5Y4).
T1 sequence (Q9Y5Y4 whole entry): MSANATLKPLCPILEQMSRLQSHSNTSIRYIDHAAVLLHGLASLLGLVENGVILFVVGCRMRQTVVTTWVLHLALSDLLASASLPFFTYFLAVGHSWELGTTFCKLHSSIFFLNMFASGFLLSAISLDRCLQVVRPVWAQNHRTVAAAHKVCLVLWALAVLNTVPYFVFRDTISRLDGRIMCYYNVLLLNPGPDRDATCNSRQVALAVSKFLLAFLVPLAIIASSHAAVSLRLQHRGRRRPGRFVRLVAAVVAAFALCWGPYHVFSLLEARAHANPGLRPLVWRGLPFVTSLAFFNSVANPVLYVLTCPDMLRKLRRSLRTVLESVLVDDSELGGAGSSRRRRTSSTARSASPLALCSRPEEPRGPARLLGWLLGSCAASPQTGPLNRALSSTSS
The assay is described as follows: The inhibitory activity can be investigated by a radioligand binding assay (Sawyer et al., Br. J. Pharmocol 2002, 137, 1163-72). The radioligand binding assay was performed at room temperature in binding buffer (10 mM HEPES/KOH pH […], with protease inhibitor cocktail tablets), containing 1.5 nM [3H]PGD2 (Amersham, 156 Cie/mmol), and 10 ug of hCRTH2 HEK293 (EBNA) cell membrane protein in a final volume of 100 ul in 96 well plates (Corning, USA). Non-specific binding was determined in the presence of 1 uM PGD2 (Cayman, USA). Competing pyrazine sulfonamides were diluted in dimethylsulphoxide so that the total volume of dimethylsulfoxide was kept constant at 1% dimethylsulphoxide (Me2SO). 10 ul of the pyrazine sulfonamides were added. Incubation (60 min at room temperature) was terminated by rapid filtration through 96 wells hydrophobic GF/C Unifilter plates.
A word on the Ki: it is a measure of affinity in units of concentration, obtained from inhibition or displacement. With `O=S(=O)(Nc1nccnc1-c1ccc(COc2cccc(Cl)c2)cc1)c1ccccc1C(F)(F)F`, the Ki is 2900 nM.
To `COc1ccc(OCc2ccc(-c3nccnc3NS(=O)(=O)c3ccccc3C(F)(F)F)cc2)cc1` belongs 2600 nM; to `O=S(=O)(Nc1nccnc1-c1ccc(COc2ccc(F)cc2)cc1)c1ccccc1C(F)(F)F`, 480 nM; to `O=S(=O)(Nc1nccnc1-c1ccc(CN(Cc2ccccc2)c2ccccn2)cc1)c1ccccc1C(F)(F)F`, 4440 nM.
To `O=S(=O)(Nc1nccnc1-c1ccc(COc2ccc(Cl)nc2)cc1)c1ccccc1C(F)(F)F` belongs 720 nM; to `CN(Cc1ccc(-c2nccnc2NS(=O)(=O)c2ccccc2C(F)(F)F)cc1)c1ccc(Cl)c(Cl)c1`, 1580 nM; to `CN(Cc1ccc(-c2nccnc2NS(=O)(=O)c2ccccc2C(F)(F)F)cc1)c1cccc(F)c1`, 700 nM.
To `Cc1cc2cc(Cl)ccc2n1Cc1ccc(-c2nccnc2NS(=O)(=O)c2ccccc2C(F)(F)F)cc1` belongs 4650 nM; to `CN(Cc1ccc(-c2nccnc2NS(=O)(=O)c2ccccc2C(F)(F)F)cc1)c1ccc(C#N)cc1`, 470 nM; to `O=S(=O)(Nc1nccnc1-c1ccc(Cn2c(-c3ccccn3)cc3ccccc32)cc1)c1ccccc1C(F)(F)F`, 850 nM.
As for `Cc1cc2ccccc2n1Cc1ccc(-c2nccnc2NS(=O)(=O)c2ccccc2C(F)(F)F)cc1`, the Ki stood at 3060 nM.
`CN(Cc1ccc(-c2nccnc2NS(=O)(=O)c2ccccc2Cl)cc1)c1ccc(C#N)cc1`: the Ki turned out to be 1490 nM.
To `CN(Cc1ccc(-c2nccnc2NS(=O)(=O)c2ccccc2Cl)cc1)c1ccc(F)cc1F` belongs 2950 nM; to `CCN(Cc1ccc(-c2nccnc2NS(=O)(=O)c2ccccc2C(F)(F)F)cc1)c1ccccc1`, 590 nM; to `O=S(=O)(Nc1nccnc1-c1ccc(CN(Cc2ccccc2)c2ccccn2)cc1)c1ccccc1Cl`, 2640 nM.
To `O=S(=O)(Nc1nccnc1-c1ccc(Cn2ccc3ccc(F)cc32)cc1)c1ccccc1C(F)(F)F` belongs 1930 nM; to `O=S(=O)(Nc1nccnc1-c1ccc(COc2ccccc2)cc1)c1ccccc1C(F)(F)F`, 1320 nM.
With `O=S(=O)(Nc1nccnc1-c1ccc(CN2CCOc3ccccc32)cc1)c1ccccc1C(F)(F)F` the figure was 620 nM.
As to `N#Cc1ccc(OCc2ccc(-c3nccnc3NS(=O)(=O)c3ccccc3C(F)(F)F)cc2)cc1`, the Ki amounted to 1590 nM.
To `O=S(=O)(Nc1nccnc1-c1ccc(CN2CCc3ccccc32)cc1)c1ccccc1C(F)(F)F` belongs 2690 nM; to `CN(Cc1ccc(-c2nccnc2NS(=O)(=O)c2ccccc2C(F)(F)F)cc1)c1ccc(Cl)cc1`, 1470 nM; to `CN(Cc1ccc(-c2nccnc2NS(=O)(=O)c2ccccc2C(F)(F)F)cc1)c1ccc(Cl)cc1Cl`, 2820 nM.
With `O=S(=O)(Nc1nccnc1-c1ccc(Cn2ccc3cc(F)ccc32)cc1)c1ccccc1C(F)(F)F` the figure was 950 nM; with `COc1ccc2c(c1)cc(C)n2Cc1ccc(-c2nccnc2NS(=O)(=O)c2ccccc2Cl)cc1`, 2210 nM.
